Experimental data from article PMC8111447 (Frontiers in Pharmacology, 2021).

Key:
Experiment in all cases: Kinase panel (Eurofins)
Assay type in all cases: biochemical
Details in all cases: n = 2; for inhibition at 1 µM: at 1 μmol/L; for IC50: read-out: IC50 kinase inhibition
PTK5(h) = molecular target: T1, PTK5(h) (Homo sapiens, UniProt P42685)
T1 construct: purchased Eurofins
Source text: (§1) These receptors have a methionine gatekeeper in their kinase domains, and are related to hyperglycemia in other clinical trials of EGFR TKI, such as Co-1686.

Fer(h) = molecular target: T2, Fer(h) (Homo sapiens, UniProt P16591)
T2 construct: purchased Eurofins
T2 sequence (P16591 whole entry): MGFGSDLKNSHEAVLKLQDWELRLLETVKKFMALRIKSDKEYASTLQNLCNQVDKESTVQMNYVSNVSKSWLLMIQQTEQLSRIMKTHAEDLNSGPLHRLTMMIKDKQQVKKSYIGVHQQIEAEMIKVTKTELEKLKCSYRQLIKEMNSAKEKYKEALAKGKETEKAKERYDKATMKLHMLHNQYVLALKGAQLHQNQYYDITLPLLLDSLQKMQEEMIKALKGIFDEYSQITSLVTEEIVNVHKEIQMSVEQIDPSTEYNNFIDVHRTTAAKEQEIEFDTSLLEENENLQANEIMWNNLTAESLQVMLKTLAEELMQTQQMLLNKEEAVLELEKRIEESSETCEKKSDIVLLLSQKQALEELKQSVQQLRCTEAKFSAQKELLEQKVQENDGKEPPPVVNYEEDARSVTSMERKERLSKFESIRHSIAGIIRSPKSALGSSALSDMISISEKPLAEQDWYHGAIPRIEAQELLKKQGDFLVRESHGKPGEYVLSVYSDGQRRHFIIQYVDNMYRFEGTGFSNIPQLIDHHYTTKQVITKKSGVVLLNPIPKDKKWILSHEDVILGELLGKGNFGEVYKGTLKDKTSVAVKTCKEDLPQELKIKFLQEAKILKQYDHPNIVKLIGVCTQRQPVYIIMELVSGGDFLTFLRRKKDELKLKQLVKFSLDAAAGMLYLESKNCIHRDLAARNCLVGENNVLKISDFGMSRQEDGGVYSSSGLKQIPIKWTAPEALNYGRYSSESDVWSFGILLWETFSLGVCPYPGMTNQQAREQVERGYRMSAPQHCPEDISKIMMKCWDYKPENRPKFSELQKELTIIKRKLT
Source text: as §1

IR(h), activated = molecular target: T3, IR(h), activated (Homo sapiens, UniProt P06213)
T3 construct: purchased Eurofins
Source text: as §1

BRK(h) = molecular target: T4, BRK(h) (Homo sapiens, UniProt Q13882)
T4 construct: purchased Eurofins
Source text: as §1

Ros(h) = molecular target: T5, Ros(h) (Homo sapiens, UniProt P08922)
T5 construct: purchased Eurofins
Source text: as §1

Blk(h) = molecular target: T6, Blk(h) (Homo sapiens, UniProt P51451)
T6 construct: purchased Eurofins
Source text: as §1

MLCK(h) = molecular target: T7, MLCK(h) (Homo sapiens, UniProt Q9H1R3)
T7 construct: purchased Eurofins
Source text: as §1

Pyk2(h) = molecular target: T8, Pyk2(h) (Homo sapiens, UniProt Q14289)
T8 construct: purchased Eurofins
T8 sequence (Q14289 whole entry): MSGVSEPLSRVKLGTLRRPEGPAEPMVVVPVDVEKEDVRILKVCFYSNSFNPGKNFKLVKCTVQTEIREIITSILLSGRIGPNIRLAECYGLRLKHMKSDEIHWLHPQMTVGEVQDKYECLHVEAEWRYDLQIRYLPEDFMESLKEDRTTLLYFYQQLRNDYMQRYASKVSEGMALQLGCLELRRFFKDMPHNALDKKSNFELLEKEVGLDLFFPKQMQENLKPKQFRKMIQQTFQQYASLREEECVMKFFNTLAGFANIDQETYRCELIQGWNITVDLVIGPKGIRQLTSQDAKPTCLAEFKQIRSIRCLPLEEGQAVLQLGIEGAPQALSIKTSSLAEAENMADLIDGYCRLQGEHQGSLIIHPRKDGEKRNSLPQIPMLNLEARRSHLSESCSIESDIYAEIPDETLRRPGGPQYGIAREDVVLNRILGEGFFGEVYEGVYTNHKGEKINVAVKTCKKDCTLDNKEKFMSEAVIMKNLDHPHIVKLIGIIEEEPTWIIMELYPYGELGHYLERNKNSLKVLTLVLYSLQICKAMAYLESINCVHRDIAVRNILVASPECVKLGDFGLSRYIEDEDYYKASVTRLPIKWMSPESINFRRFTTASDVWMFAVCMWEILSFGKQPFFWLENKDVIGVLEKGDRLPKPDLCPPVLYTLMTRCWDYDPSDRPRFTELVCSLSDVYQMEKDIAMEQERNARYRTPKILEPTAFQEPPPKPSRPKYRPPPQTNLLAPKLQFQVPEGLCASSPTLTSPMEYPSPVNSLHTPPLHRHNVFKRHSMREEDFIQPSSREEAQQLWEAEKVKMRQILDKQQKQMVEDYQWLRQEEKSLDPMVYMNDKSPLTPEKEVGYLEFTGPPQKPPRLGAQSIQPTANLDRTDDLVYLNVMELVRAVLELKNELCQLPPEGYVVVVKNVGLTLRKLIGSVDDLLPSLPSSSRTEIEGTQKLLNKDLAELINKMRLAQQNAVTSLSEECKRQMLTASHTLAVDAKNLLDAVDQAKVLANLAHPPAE
Source text: as §1

Itk(h) = molecular target: T9, Itk(h) (Homo sapiens, UniProt Q08881)
T9 construct: purchased Eurofins
T9 sequence (Q08881 1-620): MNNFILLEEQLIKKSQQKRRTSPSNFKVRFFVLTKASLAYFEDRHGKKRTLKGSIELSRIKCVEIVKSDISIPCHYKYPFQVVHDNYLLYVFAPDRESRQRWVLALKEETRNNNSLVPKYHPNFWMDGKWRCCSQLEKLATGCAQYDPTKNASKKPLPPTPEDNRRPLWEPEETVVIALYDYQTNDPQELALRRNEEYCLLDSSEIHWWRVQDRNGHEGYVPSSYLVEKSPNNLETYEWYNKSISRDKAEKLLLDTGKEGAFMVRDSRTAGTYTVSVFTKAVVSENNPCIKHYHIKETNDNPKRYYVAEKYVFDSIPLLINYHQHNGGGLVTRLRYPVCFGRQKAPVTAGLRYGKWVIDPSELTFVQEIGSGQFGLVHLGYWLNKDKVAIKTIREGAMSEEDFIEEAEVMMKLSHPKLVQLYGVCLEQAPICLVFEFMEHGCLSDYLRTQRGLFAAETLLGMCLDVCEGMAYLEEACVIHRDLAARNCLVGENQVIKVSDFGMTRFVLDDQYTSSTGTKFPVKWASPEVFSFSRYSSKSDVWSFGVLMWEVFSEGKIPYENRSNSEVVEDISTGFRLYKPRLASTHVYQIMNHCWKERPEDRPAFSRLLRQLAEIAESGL
Source text: as §1

HIPK4(h) = molecular target: T10, HIPK4(h) (Homo sapiens, UniProt Q8NE63)
T10 construct: purchased Eurofins
T10 sequence (Q8NE63 1-616): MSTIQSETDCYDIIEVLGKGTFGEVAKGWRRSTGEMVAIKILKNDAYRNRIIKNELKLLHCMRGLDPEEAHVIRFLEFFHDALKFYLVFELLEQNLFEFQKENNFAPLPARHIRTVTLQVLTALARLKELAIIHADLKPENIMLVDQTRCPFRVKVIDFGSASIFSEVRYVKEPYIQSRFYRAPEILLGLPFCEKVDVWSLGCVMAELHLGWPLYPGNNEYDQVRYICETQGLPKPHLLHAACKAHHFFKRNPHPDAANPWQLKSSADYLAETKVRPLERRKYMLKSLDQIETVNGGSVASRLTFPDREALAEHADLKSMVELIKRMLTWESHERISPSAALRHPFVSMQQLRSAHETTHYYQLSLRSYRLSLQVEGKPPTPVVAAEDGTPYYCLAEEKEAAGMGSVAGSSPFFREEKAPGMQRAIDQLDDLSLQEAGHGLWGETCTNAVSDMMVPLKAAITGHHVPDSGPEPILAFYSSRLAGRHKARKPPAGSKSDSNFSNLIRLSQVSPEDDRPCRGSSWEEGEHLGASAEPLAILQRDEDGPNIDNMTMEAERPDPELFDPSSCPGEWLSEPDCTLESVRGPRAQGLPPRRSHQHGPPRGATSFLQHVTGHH
Source text: as §1

IGF-1R(h) = molecular target: T11, IGF-1R(h) (Homo sapiens, UniProt P08069)
T11 construct: purchased Eurofins
Source text: as §1

LOK(h) = molecular target: T12, LOK(h) (Homo sapiens, UniProt O94804)
T12 construct: purchased Eurofins
T12 sequence (O94804 whole entry): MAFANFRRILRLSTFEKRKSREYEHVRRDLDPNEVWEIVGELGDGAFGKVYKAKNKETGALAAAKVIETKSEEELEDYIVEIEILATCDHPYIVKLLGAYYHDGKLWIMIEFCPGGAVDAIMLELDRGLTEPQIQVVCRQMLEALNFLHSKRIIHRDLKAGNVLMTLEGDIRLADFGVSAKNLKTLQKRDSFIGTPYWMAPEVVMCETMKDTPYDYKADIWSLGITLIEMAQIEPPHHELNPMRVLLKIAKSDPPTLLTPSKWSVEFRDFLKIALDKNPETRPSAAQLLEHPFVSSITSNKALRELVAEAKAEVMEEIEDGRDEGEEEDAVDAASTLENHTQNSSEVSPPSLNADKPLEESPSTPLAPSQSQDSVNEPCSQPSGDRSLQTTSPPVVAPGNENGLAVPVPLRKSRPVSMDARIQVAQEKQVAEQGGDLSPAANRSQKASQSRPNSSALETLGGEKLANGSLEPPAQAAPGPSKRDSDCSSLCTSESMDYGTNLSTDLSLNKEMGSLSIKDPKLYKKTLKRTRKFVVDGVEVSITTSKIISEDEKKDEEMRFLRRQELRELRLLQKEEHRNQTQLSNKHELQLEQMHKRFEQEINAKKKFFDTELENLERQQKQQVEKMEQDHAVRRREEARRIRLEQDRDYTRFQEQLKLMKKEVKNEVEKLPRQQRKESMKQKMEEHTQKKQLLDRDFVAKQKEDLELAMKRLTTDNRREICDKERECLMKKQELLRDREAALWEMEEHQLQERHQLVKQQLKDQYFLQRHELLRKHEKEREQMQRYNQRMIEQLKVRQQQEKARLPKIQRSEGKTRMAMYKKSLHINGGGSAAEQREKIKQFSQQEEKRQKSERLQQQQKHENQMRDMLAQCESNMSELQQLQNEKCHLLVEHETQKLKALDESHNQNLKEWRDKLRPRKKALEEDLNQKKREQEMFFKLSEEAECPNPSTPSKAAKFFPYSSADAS
Source text: as §1

ALK(h) = molecular target: T13, ALK(h) (Homo sapiens, UniProt Q9UM73)
T13 construct: purchased Eurofins
T13 sequence (Q9UM73 19-1620): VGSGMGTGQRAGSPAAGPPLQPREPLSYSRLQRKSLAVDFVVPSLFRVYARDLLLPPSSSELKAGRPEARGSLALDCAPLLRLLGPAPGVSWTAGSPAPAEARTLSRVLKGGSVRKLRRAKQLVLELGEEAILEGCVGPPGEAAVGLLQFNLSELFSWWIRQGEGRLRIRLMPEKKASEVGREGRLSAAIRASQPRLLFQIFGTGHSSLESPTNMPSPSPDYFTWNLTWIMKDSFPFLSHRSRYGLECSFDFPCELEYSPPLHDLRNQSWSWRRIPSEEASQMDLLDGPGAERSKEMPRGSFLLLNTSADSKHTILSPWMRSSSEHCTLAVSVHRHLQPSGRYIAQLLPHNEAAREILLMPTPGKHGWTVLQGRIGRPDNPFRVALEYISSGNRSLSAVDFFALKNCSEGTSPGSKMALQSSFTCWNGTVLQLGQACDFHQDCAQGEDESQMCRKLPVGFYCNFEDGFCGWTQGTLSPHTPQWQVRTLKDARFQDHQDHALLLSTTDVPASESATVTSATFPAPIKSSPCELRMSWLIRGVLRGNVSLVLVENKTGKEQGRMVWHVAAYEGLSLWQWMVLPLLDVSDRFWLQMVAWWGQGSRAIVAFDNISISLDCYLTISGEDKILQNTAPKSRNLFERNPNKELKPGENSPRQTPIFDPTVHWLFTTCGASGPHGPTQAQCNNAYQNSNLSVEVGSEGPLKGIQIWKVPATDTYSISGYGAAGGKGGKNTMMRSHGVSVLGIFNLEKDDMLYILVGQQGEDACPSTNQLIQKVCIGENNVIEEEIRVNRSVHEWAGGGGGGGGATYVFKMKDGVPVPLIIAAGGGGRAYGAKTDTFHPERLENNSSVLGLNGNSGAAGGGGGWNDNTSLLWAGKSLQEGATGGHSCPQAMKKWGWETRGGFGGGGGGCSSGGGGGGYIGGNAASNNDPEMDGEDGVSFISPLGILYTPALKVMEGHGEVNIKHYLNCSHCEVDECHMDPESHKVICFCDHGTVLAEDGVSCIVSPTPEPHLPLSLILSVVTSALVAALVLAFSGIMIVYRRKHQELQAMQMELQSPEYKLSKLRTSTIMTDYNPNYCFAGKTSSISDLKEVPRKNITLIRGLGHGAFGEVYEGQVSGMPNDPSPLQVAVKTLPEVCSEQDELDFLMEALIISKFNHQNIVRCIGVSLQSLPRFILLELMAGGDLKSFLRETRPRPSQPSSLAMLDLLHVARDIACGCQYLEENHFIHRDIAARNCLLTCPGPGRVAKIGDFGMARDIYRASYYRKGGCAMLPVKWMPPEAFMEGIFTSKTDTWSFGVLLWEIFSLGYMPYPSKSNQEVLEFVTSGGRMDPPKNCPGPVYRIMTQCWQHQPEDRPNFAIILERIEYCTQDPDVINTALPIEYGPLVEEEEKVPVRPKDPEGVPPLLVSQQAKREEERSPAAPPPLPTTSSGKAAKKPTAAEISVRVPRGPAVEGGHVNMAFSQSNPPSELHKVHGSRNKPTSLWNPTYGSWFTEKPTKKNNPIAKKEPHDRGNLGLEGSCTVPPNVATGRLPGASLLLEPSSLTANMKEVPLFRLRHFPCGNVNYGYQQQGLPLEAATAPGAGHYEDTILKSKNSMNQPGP
Source text: as §1

ErbB4(h) = molecular target: T14, ErbB4(h) (Homo sapiens, UniProt Q15303)
T14 construct: purchased Eurofins
Source text: as §1

Tec(h) activated = molecular target: T15, Tec(h) activated (Homo sapiens, UniProt P42680)
T15 construct: purchased Eurofins
T15 sequence (P42680 1-631): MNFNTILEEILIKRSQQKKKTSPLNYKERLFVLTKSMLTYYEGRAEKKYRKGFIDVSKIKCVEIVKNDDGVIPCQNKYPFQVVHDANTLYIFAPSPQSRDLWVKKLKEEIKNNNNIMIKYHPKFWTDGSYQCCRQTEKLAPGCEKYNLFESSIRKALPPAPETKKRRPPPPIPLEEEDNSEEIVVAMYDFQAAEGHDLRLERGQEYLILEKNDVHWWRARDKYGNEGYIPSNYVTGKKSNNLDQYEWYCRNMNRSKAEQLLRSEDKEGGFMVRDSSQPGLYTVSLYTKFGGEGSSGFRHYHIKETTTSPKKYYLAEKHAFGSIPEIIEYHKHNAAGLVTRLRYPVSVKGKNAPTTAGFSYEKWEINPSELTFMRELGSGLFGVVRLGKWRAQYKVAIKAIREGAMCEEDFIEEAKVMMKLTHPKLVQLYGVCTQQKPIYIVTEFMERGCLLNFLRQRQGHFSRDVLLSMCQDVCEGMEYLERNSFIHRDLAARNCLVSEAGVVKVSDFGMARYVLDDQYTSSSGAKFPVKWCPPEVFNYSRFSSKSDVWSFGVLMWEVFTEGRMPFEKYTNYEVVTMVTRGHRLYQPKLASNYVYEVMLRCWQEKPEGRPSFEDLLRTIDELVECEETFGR
Source text: as §1

T1 sequence (P42685 whole entry): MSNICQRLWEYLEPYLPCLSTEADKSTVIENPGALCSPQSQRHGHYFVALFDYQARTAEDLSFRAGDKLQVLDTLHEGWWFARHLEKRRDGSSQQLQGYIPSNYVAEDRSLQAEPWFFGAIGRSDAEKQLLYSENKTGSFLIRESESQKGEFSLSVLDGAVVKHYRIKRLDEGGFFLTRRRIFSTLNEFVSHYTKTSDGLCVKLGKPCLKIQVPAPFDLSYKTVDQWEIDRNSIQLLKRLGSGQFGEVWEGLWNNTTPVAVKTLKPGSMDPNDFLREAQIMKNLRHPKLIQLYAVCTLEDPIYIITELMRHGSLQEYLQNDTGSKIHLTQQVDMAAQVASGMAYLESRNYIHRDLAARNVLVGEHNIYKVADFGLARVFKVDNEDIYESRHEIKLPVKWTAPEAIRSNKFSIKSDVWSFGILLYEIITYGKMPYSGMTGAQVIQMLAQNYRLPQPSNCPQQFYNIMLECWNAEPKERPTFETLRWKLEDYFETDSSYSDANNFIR

Structure (SMILES) | inhibition at 1 µM (PTK5(h)) | IC50 (PTK5(h)) | inhibition at 1 µM (Fer(h)) | IC50 (Fer(h)) | inhibition at 1 µM (IR(h), activated) | IC50 (IR(h), activated) | inhibition at 1 µM (BRK(h)) | IC50 (BRK(h)) | inhibition at 1 µM (Ros(h)) | IC50 (Ros(h)) | inhibition at 1 µM (Blk(h)) | IC50 (Blk(h)) | inhibition at 1 µM (MLCK(h)) | IC50 (MLCK(h)) | inhibition at 1 µM (Pyk2(h)) | IC50 (Pyk2(h)) | inhibition at 1 µM (Itk(h)) | IC50 (Itk(h)) | inhibition at 1 µM (HIPK4(h)) | IC50 (HIPK4(h)) | other results
C=CC(=O)Nc1cc(Nc2nccc(-c3c4n(c5ccccc35)CCCC4)n2)c(OC)cc1N(C)CCNC [Imp3] | 64% | 736 nM | 80% | 452 nM | 74% | 321 nM | 91% | 80 nM | 98% | 47 nM | 85% | 229 nM | 68% | 597 nM | 83% | 227 nM | 68% | 825 nM | 82% | 276 nM | inhibition at 1 µM (IGF-1R(h)): 70%; IC50 (IGF-1R(h)): 812 nM; inhibition at 1 µM (LOK(h)): 72%; IC50 (LOK(h)): 593 nM; inhibition at 1 µM (ALK(h)): 92%; IC50 (ALK(h)): 53 nM; inhibition at 1 µM (ErbB4(h)): 92%; IC50 (ErbB4(h)): 84 nM; inhibition at 1 µM (Tec(h) activated): 77%; IC50 (Tec(h) activated): 272 nM
C=CC(=O)Nc1cc(Nc2nccc(-c3c4n(c5ccccc35)CCCC4)n2)c(OC)cc1N(C)CCN(C)C [SH-1028] | 39% | 644 nM | 45% | 542 nM | 58% | 241 nM | 85% | 62 nM | 96% | 50 nM | 83% | 143 nM | 55% | 400 nM | 73% | 228 nM | 66% | 320 nM | 67% | 232 nM | inhibition at 1 µM (IGF-1R(h)): 38%; IC50 (IGF-1R(h)): 574 nM; inhibition at 1 µM (LOK(h)): 24%; IC50 (LOK(h)): 1950 nM; inhibition at 1 µM (ALK(h)): 85%; IC50 (ALK(h)): 79 nM; inhibition at 1 µM (ErbB4(h)): 90%; IC50 (ErbB4(h)): 46 nM; inhibition at 1 µM (Tec(h) activated): 80%; IC50 (Tec(h) activated): 150 nM
